Usually IC50 stands for the point on the concentration scale where inhibition reaches its midpoint. A high value points to weaker potency.

Test [1] deals with T1, human group 1B PLA2 (hps PLA2) (Homo sapiens, UniProt P04054).
T1 construct: made in house; host or cells: E. coli
The experiment in a line: Example 8 fluorimetric PLA2 inhibition assay (PPyrPM), human enzyme. The test is classed as biochemical. From the text: In this example, a fluorimetric assay procedure was used to evaluate the indole and indole-related compounds of the invention as inhibitors of group 1B phospholipase A2 (PLA2) from human, mouse and porcine. A description of this assay is found in articles: Leslie, C C and Gelb, M H (2004) Methods in Molecular Biology “Assaying phospholipase A2 activity”, 284:229-242; Singer, A G, et al. (2002) Journal of Biological Chemistry “Interfacial kinetic and binding properties of the complete set of human and mouse groups I, II, V, X, and XII secreted phospholipases A2”, 277:48535-48549, which are incorporated herein as references.
In general, this assay used a phosphatidylmethanol substrate with a pyrene fluorophore on the terminal end of the sn-2 fatty acyl chain. Without being bound by theory, close proximity of the pyrenes from neighboring phospholipids in a phospholipid vesicle caused the spectral properties to change relative to that of monomeric pyrene. Bovine serum albumin was present in the aqueous phase and captured the pyrene fatty acid when it is liberated from the glycerol backbone owing to the PLA2-catalyzed reaction. […] The effect of a given inhibitor and inhibitor concentration on human, mouse and porcine phospholipase was determined. […]
The following procedure was performed to evaluate the inhibitory potency of the evaluated compounds. • 1. […]

Test [2] concerns LDL receptor knockout mice (B6.129S7-Ldlrtm1Her). The experiment in a line: Example 11 LDL receptor knockout mice. The test is classed as in vivo, mouse. The settings on record: low fat control diet (D12328) with vs without test article. The text has this:
Mice lack an enzyme found in humans, cholesterol ester transfer protein (CETP), which is responsible for the transfer of cholesterol from high density lipoproteins (HDL) to the ApoB-containing lipoproteins such as very low density lipoproteins (VLDL) and low density lipoproteins (LDL). Consequently, LDL cholesterol levels in wild-type mice are very low compared to those seen in humans. The low density lipoprotein receptor (LDLR) is involved with clearing LDL and lipoprotein remnants containing apoE. If the LDLR is inactivated, LDL cholesterol levels rise to levels seen in humans. On a normal rodent diet, the LDL cholesterol levels in LDLR deficient mice are elevated compared to wild-type mice. […]
In these studies and the accompanying figures, Diet D12328 from Research Diets is referred to as the “Low Fat” or Control diet, while Diet D12079B from Research Diets is referred to as the “Western” diet. […] The Test Article content was calculated such that ad libitum consumption by the animals would deliver doses (in mg of Test Article per Kg animal weight per day) approximating those listed in Table 6.
Animals were maintained on the diets for twelve weeks. Body weights were recorded weekly. […] The serum was analyzed for total cholesterol, LDL cholesterol, HDL cholesterol, and triglycerides (TG). […]

T1 sequence (P04054 23-148): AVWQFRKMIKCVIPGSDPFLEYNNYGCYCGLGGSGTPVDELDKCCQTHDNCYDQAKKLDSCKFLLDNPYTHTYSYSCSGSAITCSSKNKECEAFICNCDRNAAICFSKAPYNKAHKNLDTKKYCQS

Consider `Cc1c(C(=O)C(N)=O)c2c(OCC(=O)NS(=O)(=O)CCCC(=O)O)cccc2n1Cc1ccccc1` [ILY-IV-40, 4-[2-(3-Aminooxalyl-1-benzyl-2-methyl-1H-indol-4-yloxy)-acetylsulfamoyl]-butyric acid], for which half-maximal inhibition in test [1] (IC50) required 0.39 µM. Moreover, the “effect in animals fed a low fat control diet” value in test [2] is listed as “No or little effect”.

Source of the values: US20090318492A1, “INDOLE COMPOUNDS HAVING C4-ACIDIC SUBSTITUENTS AND USE THEREOF AS PHOSPHOLIPASE-A2 INHIBITORS” (priority 2005, published 2009).
